Structures are written as SMILES.

The text below walks through data of patent US10259817B2, “Crystal (6S,9aS)-N-benzyl-8-({6-[3-(4-ethylpiperazin-1-yl)azetidin-1-yl]pyridin-2-yl}methyl)-6-(2-fluoro-4-hydroxybenzyl)-4,7-dioxo-2-(prop-2-en-1-yl)hexahydro-2H-pyrazino[2,1-c][1,2,4]triazine-1(6H)-carboxamide” (Eisai R&D Management Co., Ltd., priority 2015, dated 2019).

One assay concerns Wnt signal. Briefly: Detection of Wnt signal (TOPglow luciferase reporter, LiCl-stimulated HEK293 clone). The class given is cell-based. The settings on record: Homo sapiens; HEK293 pNeo-TOP clone, LiCl added, luciferase emission; read-out: IC50, concentration required for inhibiting the Wnt signal activity by 50%.
Assay [1] concerns human chronic myologenous leukemia cell strain K562. Particulars: day 28; Dasatinib 5 mg/kg alone, oral qd 5 days + 2-day holiday, two cycles.
Description: A preparation of a human chronic myologenous leukemia cell strain K562 (which had been cultured in a RPMI-1640 liquid culture medium supplemented with 10% FBS and penicillin/streptomycin) which was so prepared with PBS (Wako Pure Chemical Industries, Ltd.; Cat#045-29795) that the density became 2×10^8 cells/mL was mixed with [sequence] (BD Biosicence, Cat#: 354234) at a mixing ratio of 1:1, thereby preparing a cell suspension having a density of 1×10^8 cells/mL. The resulting cell suspension was transplanted subcutaneously into the right flank of each of six-week-old nude mice (CAnN.Cg-Foxn1nu/CrlCrlj, female, Charles River Laboratories Japan) at a dose of 100 μL. Seven days after the transplantation, the shorter diameter and the longer diameter of a tumor were measured using an electronic digital caliper (Digimatic™ Caliper, Mitutoyo Corporation) to calculate the tumor volume in accordance with the following equation. Tumor volume (mm^3)=(longer diameter (mm))×(shorter diameter (mm))×(shorter diameter (mm))/2
The mice were grouped in such a manner that the average value of the tumor volumes in mice in a group, which were determined on the basis of the tumor volume on the first day of the administration. […]

Description for Wnt signal: The plasmid pNeo-TOP was introduced into human fetus-derived renal cell strain HEK293, then a compound was selected using G418, and then a cell clone strain was established by a limiting dilution method. The cell clone strain was subjected to a Wnt signal detection test.
The cell clone strain was subcultured in a D-MEM glucose-rich culture medium (Wako Pure Chemical Industries, Ltd.) containing 10% FBS, and cells in a growth phase were used in the test. Cells were collected using trypsin-EDTA, the number of the cells was counted, and then the cells were suspended in a D-MEM glucose-rich culture medium containing 10% FBS so that the number of cells became 2×10^5 cells/mL. The cell suspension was added to a 96-well cell culture plate (Greiner Bio-One Co., Ltd., product number: 655083) in an amount of 0.1 mL/well and then cultured overnight in a 5% CO2 incubator (37° C.). After the culturing, a substance to be tested, which was dissolved in DMSO, was diluted with a D-MEM glucose-rich culture medium containing 10% of FBS and 80 mM of LiCl to produce a sample solution. The sample solution (0.1 mL) was added to each well and then cultured in a 5% CO2 incubator (37° C.) overnight. […] The plate was put on a plate mixer for several seconds, and then the emission of light from each well was measured using a EnVision™ Multilabel plate reader (PerkinElmer Co., Ltd.). […]

In the case of `C=CCN1CC(=O)N2[C@@H](Cc3ccc(O)cc3F)C(=O)N(Cc3cccc(N4CC(N5CCN(CC)CC5)C4)n3)C[C@@H]2N1C(=O)NCc1ccccc1` [Example 1, (6S,9aS)-N-benzyl-8-({6-[3-(4-ethylpiperazin-1-yl)azetidin-1-yl]pyridin-2-yl}methyl)-6-(2-fluoro-4-hydroxybenzyl)-4,7-dioxo-2-(prop-2-en-1-yl)hexahydro-2H-pyrazino[2,1-c][1,2,4]triazine-1(6H)-carboxamide], in the assay on Wnt signal, the IC50 is 0.06 µM.

On to `Cc1nc(Nc2ncc(C(=O)Nc3c(C)cccc3Cl)s2)cc(N2CCN(CCO)CC2)n1` [Dasatinib], for which the “the number of individuals in which a tumor was not observed by visual judgment/total number of administered individuals” value in assay [1] is on record as 0/9.
